Laboratory results from US20050282755A1, “Compositions having antimicrobial activity and uses thereof” (priority 2004, published 2005).
In brackets after ≈: the same amount, converted by molar mass. Non-standard residues stand in square brackets, D forms with d. Residues, ends and D or L forms follow the SMILES beside them. *: point of attachment. 1Nal = N[C@@H](Cc1cccc2ccccc12)C(=O)O; Stearoyl = CCCCCCCCCCCCCCCCCC(=O)*; Palmitoyl = CCCCCCCCCCCCCCCC(=O)*; Lauroyl = CCCCCCCCCCCC(=O)*

Key:
Format in all cases: cell-based
[1] = test system: Pseudomonas aeruginosa ATCC 27853; test: MIC, NCCLS M7-A6 broth microdilution (Table 9, no superscript); details: ATCC 27853
Procedure: (§1) Cation-adjusted Mueller Hinton broth was used in the broth microdilution method. In brief, a log-phase bacterial suspension was used to inoculate wells of a 96-well plate so that the final inoculum for each well contained 5×10^5 to 1×10^6 CFU/milliliter. […] Plates were incubated overnight at 37° C. The lowest concentration of peptide that contained no visible growth as evidenced by a lack of turbidity when compared to the control (no peptide) was determined as the MIC. Unless otherwise noted, MIC values listed in Table 9 utilized this method of MIC determination.

[2] = test system: Escherichia coli ATCC 25922; test: as above; details: ATCC 25922
Procedure: as §1

[3] = test system: Staphylococcus epidermidis ATCC 12228; test: as above; details: ATCC 12228
Procedure: as §1

Salmonella dublin (Lane) = test: as above
Procedure: as §1

[4] = test system: Staphylococcus aureus ATCC 29213; test: MIC, NCCLS M7-A6 broth microdilution, cation-adjusted Mueller Hinton broth (Table 9, no superscript); details: ATCC 29213
Procedure: as §1

| MIC P. aeruginosa [1] [µg/mL] | MIC E. coli [2] [µg/mL] | MIC S. epidermidis [3] [µg/mL] | MIC S. dublin (Salmonella dublin (Lane)) [µg/mL] | MIC S. aureus [4] [µg/mL] | SMILES |
| --- | --- | --- | --- | --- | --- |
| >64 | >64 | 32 (≈ 10 µM) |  |  | CCCCCCCCCCCCCCCCCC(=O)N[C@@H](C(=O)N[C@H](CCCNC(=N)N)C(=O)N[C@@H](C(=O)N[C@H](CO)C(=O)N[C@H](CCCNC(=N)N)C(=O)N[C@@H](C(=O)NCC(=O)N[C@H](CCCNC(=N)N)C(=O)N[C@H](CO)C(=O)N[C@H](CCCNC(=N)N)C(=O)N[C@H](Cc1c[nH]c2ccccc12)C(=O)N[C@H](CCCNC(=N)N)C(=O)N[C@H](CC(=O)O)C(=O)N[C@H](Cc1c[nH]c2ccccc12)C(=O)N[C@H](CO)C(=O)N[C@H](CCCNC(=N)N)C(=O)N[C@H](CC(N)=O)C(=O)N[C@H](Cc1ccccc1)C(=O)N[C@H](CCSC)C(=O)N[C@H](CCCNC(=N)N)C(=O)N[C@H](C)C(=O)N[C@H](C)C(=O)N[C@@H](CCCCNC(C)=O)C(N)=O)[C@H](C)O)C(C)C)[C@H](C)O [Peptide 86, Stearyl-trvsrtgrsrwrdwsrnfmraaK(Ac)-NH2] (Stearoyl-[dT][dR][dV][dS][dR][dT]G[dR][dS][dR][dW][dR][dD][dW][dS][dR][dN][dF][dM][dR][dA][dA]K(Ac)-NH2) |
| 64 (≈ 33.9 µM) | 16 (≈ 8.48 µM) | 8 (≈ 4.24 µM) | 32 (≈ 17 µM) | 16 (≈ 8.48 µM) | CCCCCCCCCCCC(=O)N[C@H](CCCNC(=N)N)C(=O)N[C@H](CO)C(=O)N[C@H](CCCNC(=N)N)C(=O)N[C@H](Cc1c[nH]c2ccccc12)C(=O)N[C@H](CCCNC(=N)N)C(=O)N[C@H](CC(=O)O)C(=O)N[C@@H](C(=O)N[C@H](C)C(=O)N[C@H](CCCNC(=N)N)C(=O)N[C@H](CC(N)=O)C(=O)N[C@H](Cc1ccccc1)C(=O)N[C@H](CO)C(=O)N[C@H](CCCNC(=N)N)C(N)=O)C(C)C [Peptide 235, Lauryl-rsrwrdvarnfsr-NH2] (Lauroyl-[dR][dS][dR][dW][dR][dD][dV][dA][dR][dN][dF][dS][dR]-NH2) |
| >64 | 64 (≈ 32.5 µM) | 4 (≈ 2.03 µM) | 8 (≈ 4.06 µM) | 64 (≈ 32.5 µM) | CCCCCCCCCCCCCCCC(=O)N[C@H](CCCNC(=N)N)C(=O)N[C@H](CO)C(=O)N[C@H](CCCNC(=N)N)C(=O)N[C@H](Cc1c[nH]c2ccccc12)C(=O)N[C@H](CCCNC(=N)N)C(=O)N[C@H](CC(=O)O)C(=O)N[C@@H](C(=O)N[C@H](C)C(=O)N[C@H](CCCNC(=N)N)C(=O)N[C@H](CC(N)=O)C(=O)N[C@H](Cc1ccccc1)C(=O)N[C@H](CC(C)C)C(=O)N[C@H](CCCNC(=N)N)C(N)=O)C(C)C [Peptide 191, Palmitoyl-rsrwrdvarnflr-NH2] (Palmitoyl-[dR][dS][dR][dW][dR][dD][dV][dA][dR][dN][dF][dL][dR]-NH2) |
| >64 | 64 (≈ 30.8 µM) | 16 (≈ 7.69 µM) | 8 (≈ 3.85 µM) | 32 (≈ 15.4 µM) | CCCCCCCCCCCC(=O)N[C@@H](CCCNC(=N)N)C(=O)N[C@@H](CO)C(=O)N[C@@H](CCCNC(=N)N)C(=O)N[C@@H](Cc1c[nH]c2ccccc12)C(=O)N[C@@H](CCCNC(=N)N)C(=O)N[C@@H](CC(=O)O)C(=O)N[C@@H](Cc1cccc2ccccc12)C(=O)N[C@@H](C)C(=O)N[C@@H](CCCNC(=N)N)C(=O)N[C@@H](CC(N)=O)C(=O)N[C@@H](Cc1cccc2ccccc12)C(=O)N[C@@H](CCSC)C(=O)N[C@@H](CCCNC(=N)N)C(N)=O [Peptide 156, Lauryl-RSRWRDZARNZMR-NH2 Z = 1-naphthylalanine] (Lauroyl-RSRWRD[1Nal]ARN[1Nal]MR-NH2) |
| >64 | >64 | 16 (≈ 8.67 µM) | 64 (≈ 34.7 µM) | 64 (≈ 34.7 µM) | CCCCCCCCCCCC(=O)N[C@H](CCCNC(=N)N)C(=O)N[C@H](CO)C(=O)N[C@H](C)C(=O)N[C@H](Cc1c[nH]c2ccccc12)C(=O)N[C@H](CCCNC(=N)N)C(=O)N[C@H](CC(=O)O)C(=O)N[C@@H](C(=O)N[C@H](C)C(=O)N[C@H](CCCNC(=N)N)C(=O)N[C@H](CC(N)=O)C(=O)N[C@H](Cc1ccccc1)C(=O)N[C@H](CCSC)C(=O)N[C@H](CCCNC(=N)N)C(N)=O)C(C)C [Peptide 228, Lauryl-rsawrdvarnfmr-NH2] (Lauroyl-[dR][dS][dA][dW][dR][dD][dV][dA][dR][dN][dF][dM][dR]-NH2) |
| >64 | >64 | 4 (≈ 2.17 µM) | >64 | >64 | CCCCCCCCCCCC(=O)N[C@H](CCCNC(=N)N)C(=O)N[C@H](CO)C(=O)N[C@H](CCCNC(=N)N)C(=O)N[C@H](Cc1c[nH]c2ccccc12)C(=O)N[C@H](CCCNC(=N)N)C(=O)N[C@H](CC(=O)O)C(=O)N[C@@H](C(=O)N[C@H](C)C(=O)N[C@H](C)C(=O)N[C@H](CC(N)=O)C(=O)N[C@H](Cc1ccccc1)C(=O)N[C@H](CCSC)C(=O)N[C@H](CCCNC(=N)N)C(N)=O)C(C)C [Peptide 230, Lauryl-rsrwrdvaanfmr-NH2] (Lauroyl-[dR][dS][dR][dW][dR][dD][dV][dA][dA][dN][dF][dM][dR]-NH2) |
| 64 (≈ 31.4 µM) | 32 (≈ 15.7 µM) | 8 (≈ 3.92 µM) | 64 (≈ 31.4 µM) | 8 (≈ 3.92 µM) | CCCCCCCCCCCC(=O)N[C@@H](CCCNC(=N)N)C(=O)N[C@@H](CO)C(=O)N[C@@H](CCCNC(=N)N)C(=O)N[C@@H](Cc1cccc2ccccc12)C(=O)N[C@@H](CCCNC(=N)N)C(=O)N[C@@H](CC(=O)O)C(=O)N[C@@H](Cc1cccc2ccccc12)C(=O)N[C@@H](C)C(=O)N[C@@H](CCCNC(=N)N)C(=O)N[C@@H](CC(N)=O)C(=O)N[C@@H](Cc1ccccc1)C(=O)N[C@@H](CCSC)C(=O)N[C@@H](CCCNC(=N)N)C(N)=O [Peptide 153, Lauryl-RSRZRDZARNFMR-NH2 Z = 1-naphthylalanine] (Lauroyl-RSR[1Nal]RD[1Nal]ARNFMR-NH2) |
| >64 | >64 | 32 (≈ 10.8 µM) |  |  | CSCC[C@@H](NC(=O)[C@@H](Cc1ccccc1)NC(=O)[C@@H](CC(N)=O)NC(=O)[C@@H](CCCNC(=N)N)NC(=O)[C@@H](CO)NC(=O)[C@@H](Cc1c[nH]c2ccccc12)NC(=O)[C@@H](CC(=O)O)NC(=O)[C@@H](CCCNC(=N)N)NC(=O)[C@@H](Cc1c[nH]c2ccccc12)NC(=O)[C@@H](CCCNC(=N)N)NC(=O)[C@@H](CO)NC(=O)[C@@H](CCCNC(=N)N)NC(=O)CNC(=O)[C@H](NC(=O)[C@@H](CCCNC(=N)N)NC(=O)[C@@H](CO)NC(=O)[C@H](NC(=O)[C@@H](CCCNC(=N)N)NC(=O)[C@H](NC(C)=O)[C@H](C)O)C(C)C)[C@H](C)O)C(=O)N[C@H](CCCNC(=N)N)C(=O)N[C@H](C)C(=O)N[C@H](C)C(=O)N[C@@H](CCCCNC(C)=O)C(N)=O [Peptide 84, Ac-trvsrtgrsrwrdwsrnfmraaK(Ac)-NH2] (Ac-[dT][dR][dV][dS][dR][dT]G[dR][dS][dR][dW][dR][dD][dW][dS][dR][dN][dF][dM][dR][dA][dA]K(Ac)-NH2) |
